Experimental data from patent US9637473B2, “Acrylamide derivatives as antimalarial agents” (priority 2013, dated 2017).
Counter-ions that a name gives are not always drawn.

Tested on: P. Falciparum NF54
Test: Plasmodium falciparum in vitro assay ([3H]-hypoxanthine incorporation)
Format: cell-based
Details: P. Falciparum NF54, erythrocytic stages in human red blood cells, 50% human serum
How it was run: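 Activity against the blood stages of Plasmodium falciparum growing in human red blood cells was measured by how much [3H]-hypoxanthine the parasites took up. Filters were dried, sealed in plastic foil containing 10 mL of scintillation fluid, and read on a Betaplate liquid scintillation counter. IC50 values came from sigmoidal inhibition curves fitted in Microsoft Excel.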

Compound | IC50 [nM]
CN1CCC(N2CCC(N(Cc3ccc(N(C)c4ccncc4)cc3)C(=O)/C=C/c3ccc(C(F)(F)F)cc3)C(F)C2)CC1 (racemic) [Example 79, (±)-(E)-N-(trans-3-fluoro-1′-methyl-[1,4′-bipiperidin]-4-yl)-N-(4-(methyl(pyridin-4-yl)amino)benzyl)-3-(4-(trifluoromethyl)phenyl)acrylamide] | 21

Same assay, conditions: Plasmodium falciparum, Erythrocyte, P. Falciparum NF54, erythrocytic stages in human red blood cells, 50% human serum

IC50 [nM] | Compound
21 | CN1CCC(N2CCC3(CCC(N(Cc4ccc(N(C)c5ccncc5)cc4)C(=O)/C=C/c4ccc(C(F)(F)F)cc4)CC3)CC2)CC1 [Example 65, (E)-N-(4-(methyl(pyridin-4-yl)amino)benzyl)-N-(3-(1-methylpiperidin-4-yl)-3-azaspiro[5.5]undecan-9-yl)-3-(4-(trifluoromethyl)phenyl)acrylamide]
82 | Cc1cc(Oc2ccc(CN(C(=O)/C=C/c3ccc(C(F)(F)F)cc3)C3CCN(C4CCCC4)CC3)cc2)cc(C)n1 [Example 208, (E)-N-(1-Cyclopentyl-piperidin-4-yl)-N-[4-(2,6-dimethyl-pyridin-4-yloxy)-benzyl]-3-(4-trifluoromethyl-phenyl)-acrylamide]
175 | CC(c1ccccc1)N1CCC(N(Cc2ccc(N(C)c3ccncc3)cc2)C(=O)/C=C/c2ccc(C(F)(F)F)cc2)CC1 (racemic) [Example 30, (±)-(E)-N-[4-(Methyl-pyridin-4-yl-amino)-benzyl]-N-[1-(1-phenyl-ethyl)-piperidin-4-yl]-3-(4-trifluoromethyl-phenyl)-acrylamide]
154 | CN(c1ccncc1)c1ccc(CN(C(=O)/C=C/c2ccc(C(F)(F)F)cc2)C2CCN(CCC(F)(F)F)CC2)cc1 [Example 16, (E)-N-[4-(Methyl-pyridin-4-yl-amino)-benzyl]-3-(4-trifluoromethyl-phenyl)-N-[1-(3,3,3-trifluoro-propyl)-piperidin-4-yl]-acrylamide]
43 | CC(C)CCN1CCC(N(Cc2ccc(N(C)c3ccncc3)cc2)C(=O)/C=C/c2ccc(C(F)(F)F)cc2)CC1 [Example 8, (E)-N-[1-(3-Methyl-butyl)-piperidin-4-yl]-N-[4-(methyl-pyridin-4-yl-amino)-benzyl]-3-(4-trifluoromethyl-phenyl)-acrylamide]
40 | CN(c1ccncc1)c1ccc(CN(CC2CCN(C3CCCC3)CC2)C(=O)/C=C/c2ccc(C(F)(F)F)cc2)cc1 [Example 188, (E)-N-(1-Cyclopentyl-piperidin-4-ylmethyl)-N-[4-(methyl-pyridin-4-yl-amino)-benzyl]-3-(4-trifluoromethyl-phenyl)-acrylamide]
50 | CN(c1ccncc1)c1ccc(CN(C(=O)/C=C/c2ccc(C(F)(F)F)cc2)[C@H]2CCN(C3CCCC3)C[C@H]2F)cc1 (racemic) [Example 76, (±)-(E)-N-(cis-1-cyclopentyl-3-fluoropiperidin-4-yl)-N-(4-(methyl(pyridin-4-yl)amino)benzyl)-3-(4-(trifluoromethyl)phenyl)acrylamide]
355 | Cc1cc(Nc2ccc(CN(CCCN3CCOCC3)C(=O)/C=C/c3ccc(C(F)(F)F)cc3)cc2)ccn1 [Example 173, (E)-N-[4-(2-Methyl-pyridin-4-ylamino)-benzyl]-N-(3-morpholin-4-yl-propyl)-3-(4-trifluoromethyl-phenyl)-acrylamide]
355 | O=C(/C=C/c1ccc(C(F)(F)F)cc1)N(Cc1ccc(-c2ccccn2)cc1)C1CCN(C2CCCC2)CC1 [Example 198, (E)-N-(1-Cyclopentyl-piperidin-4-yl)-N-(4-pyridin-2-yl-benzyl)-3-(4-trifluoromethyl-phenyl)-acrylamide]
27 | CN(c1ccncc1)c1ccc(CN(C(=O)/C=C/c2ccc(C(F)(F)F)cc2)C2CCN(CC3CC3)CC2)cc1 [Example 9, (E)-N-(1-Cyclopropylmethyl-piperidin-4-yl)-N-[4-(methyl-pyridin-4-yl-amino)-benzyl]-3-(4-trifluoromethyl-phenyl)-acrylamide]
105 | CN(c1ccncc1)c1ccc(CN(C(=O)/C=C/c2ccc(C(F)(F)F)cc2)[C@@H]2CCN(C3CCCC3)C[C@H]2F)cc1 (racemic) [Example 80, (±)-(E)-N-(trans-1-cyclopentyl-3-fluoropiperidin-4-yl)-N-(4-(methyl(pyridin-4-yl)amino)benzyl)-3-(4-(trifluoromethyl)phenyl)acrylamide]
160 | CN(c1ccncc1)c1ccc(CN(C(=O)/C=C/c2ccc(S(C)(=O)=O)cc2)C2CCN(Cc3ccccc3)CC2)cc1 [Example 162, (E)-N-(1-Benzyl-piperidin-4-yl)-3-(4-methanesulfonyl-phenyl)-N-[4-(methyl-pyridin-4-yl-amino)-benzyl]-acrylamide]
70 | CC(C)CCN1CCC[C@@H](N(Cc2ccc(N(C)c3ccncc3)cc2)C(=O)/C=C/c2ccc(C(F)(F)F)cc2)C1 [Example 62, (R,E)-N-(1-isopentylpiperidin-3-yl)-N-(4-(methyl(pyridin-4-yl)amino)benzyl)-3-(4-(trifluoromethyl)phenyl)acrylamide]
165 | Cc1cc(Nc2ccc(CN(C(=O)/C=C/c3ccc(C(F)(F)F)cc3)C3CCN(C4CCN(C)CC4)CC3)cn2)ccn1 [Example 111, (E)-N-(1′-Methyl-[1,4′]bipiperidinyl-4-yl)-N-[6-(2-methyl-pyridin-4-ylamino)-pyridin-3-ylmethyl]-3-(4-trifluoromethyl-phenyl)-acrylamide]
41 | CN(c1ccncc1)c1ccc(CN(C(=O)/C=C/c2ccc(C(F)(F)F)cc2)C2CCN(CC(c3ccccc3)c3ccccc3)CC2)cc1 [Example 15, (E)-N-[1-(2,2-Diphenyl-ethyl)-piperidin-4-yl]-N-[4-(methyl-pyridin-4-yl-amino)-benzyl]-3-(4-trifluoromethyl-phenyl)-acrylamide]
39 | CCN(CC)Cc1cc(Nc2ccc(CN(C(=O)/C=C/c3ccc(C(F)(F)F)cc3)C3CCN(C)CC3)cc2)ccc1O [Example 185, (E)-N-[4-(3-Diethylaminomethyl-4-hydroxy-phenylamino)-benzyl]-N-(1-methyl-piperidin-4-yl)-3-(4-trifluoromethyl-phenyl)-acrylamide]
242 | Cc1cc(Nc2ccc(CN(C(=O)/C=C/c3ccc(C(F)(F)F)cc3)C3CCN(Cc4cc(C)on4)CC3)cc2)ccn1 [Example 34, (E)-N-[1-(5-Methyl-isoxazol-3-ylmethyl)-piperidin-4-yl]-N-[4-(2-methyl-pyridin-4-ylamino)-benzyl]-3-(4-trifluoromethyl-phenyl)-acrylamide]
184 | O=C(/C=C/c1ccc(C(F)(F)F)cc1)N(Cc1ccc(-c2cccnc2)cc1)C1CCN(C2CCCC2)CC1 [Example 197, (E)-N-(1-Cyclopentyl-piperidin-4-yl)-N-(4-pyridin-3-yl-benzyl)-3-(4-trifluoromethyl-phenyl)-acrylamide]
248 | Cc1cc(-c2ccc(CN(C(=O)/C=C/c3ccc(C(F)(F)F)cc3)C3CCN(C4CCCC4)CC3)cc2)ccn1 [Example 196, (E)-N-(1-Cyclopentyl-piperidin-4-yl)-N-[4-(2-methyl-pyridin-4-yl)-benzyl]-3-(4-trifluoromethyl-phenyl)-acrylamide]
42 | Cc1cnccc1Nc1cccc(CN(C(=O)/C=C/c2ccc(C(F)(F)F)cc2)C2CCN(C(C)C)CC2)n1 [Example 130, (E)-N-(1-Isopropyl-piperidin-4-yl)-N-[6-(3-methyl-pyridin-4-ylamino)-pyridin-2-ylmethyl]-3-(4-trifluoromethyl-phenyl)-acrylamide formate]
143 | Cc1cc(Nc2ccc(CN(C(=O)/C=C/c3ccc(C(F)(F)F)cc3)C3CCN(Cc4cnc(C)n4C)CC3)cc2)ccn1 [Example 52, (E)-N-[1-(2,3-Dimethyl-3H-imidazol-4-ylmethyl)-piperidin-4-yl]-N-[4-(2-methyl-pyridin-4-ylamino)-benzyl]-3-(4-trifluoromethyl-phenyl)-acrylamide]
337 | O=C(/C=C/c1ccc(C(F)(F)F)cc1)N(Cc1ccc(Nc2cc(C(F)(F)F)nc3c(C(F)(F)F)cccc23)cc1)C1CCN(C2CCCC2)CC1 [Example 89, (E)-N-[4-(2,8-Bis-trifluoromethyl-quinolin-4-ylamino)-benzyl]-N-(1-cyclopentyl-piperidin-4-yl)-3-(4-trifluoromethyl-phenyl)-acrylamide]
84 | Cc1cc(N(C)c2cncc(CN(C(=O)/C=C/c3ccc(C(F)(F)F)cc3)C3CCN(C(C)C)CC3)c2)ccn1 [Example 135, (E)-N-(1-Isopropyl-piperidin-4-yl)-N-{5-[methyl-(2-methyl-pyridin-4-yl)-amino]-pyridin-3-ylmethyl}-3-(4-trifluoromethyl-phenyl)-acrylamide formate]

Compound | IC50 [nM]
CN(c1ccncc1)c1ccc(CN(C(=O)/C=C/c2ccc(Cl)cc2)C2CCN(Cc3ccccc3)CC2)cc1 [Example 152, (E)-N-(1-Benzyl-piperidin-4-yl)-3-(4-chloro-phenyl)-N-[4-(methyl-pyridin-4-yl-amino)-benzyl]-acrylamide] | 76
Cc1nn(C)c(C)c1/C=C/C(=O)N(Cc1ccc(N(C)c2ccncc2)cc1)C1CCN(Cc2ccccc2)CC1 [Example 165, (E)-N-(1-Benzyl-piperidin-4-yl)-N-[4-(methyl-pyridin-4-yl-amino)-benzyl]-3-(1,3,5-trimethyl-1H-pyrazol-4-yl)-acrylamide] | 192
CN(c1ccncc1)c1ccc(CN(C(=O)/C=C/c2ccc(F)cc2)C2CCN(Cc3ccccc3)CC2)cc1 [Example 155, (E)-N-(1-Benzyl-piperidin-4-yl)-3-(4-fluoro-phenyl)-N-[4-(methyl-pyridin-4-yl-amino)-benzyl]-acrylamide] | 101
Cc1nc(C)c(/C=C/C(=O)N(Cc2ccc(N(C)c3ccncc3)cc2)C2CCN(Cc3ccccc3)CC2)s1 [Example 163, (E)-N-(1-Benzyl-piperidin-4-yl)-3-(2,4-dimethyl-thiazol-5-yl)-N-[4-(methyl-pyridin-4-yl-amino)-benzyl]-acrylamide] | 289
